According to PMC5394417, “Investigating the molecular mechanism of positive and negative allosteric modulators in the calcium-sensing receptor dimer” (Scientific Reports, 2017):

Legend:
HA-CaSR WT + myc CaSR-WT = target: T1, HA-CaSR WT + myc CaSR-WT (Rattus norvegicus, UniProt P48442); test: IP-One assay, co-expression 1:1 in HEK293T; format: cell-based
T1 construct: mGluR5 signal peptide (N); expressed in transfected cells; host or cells: HEK293T
T1 sequence (P48442 20-1079) 1: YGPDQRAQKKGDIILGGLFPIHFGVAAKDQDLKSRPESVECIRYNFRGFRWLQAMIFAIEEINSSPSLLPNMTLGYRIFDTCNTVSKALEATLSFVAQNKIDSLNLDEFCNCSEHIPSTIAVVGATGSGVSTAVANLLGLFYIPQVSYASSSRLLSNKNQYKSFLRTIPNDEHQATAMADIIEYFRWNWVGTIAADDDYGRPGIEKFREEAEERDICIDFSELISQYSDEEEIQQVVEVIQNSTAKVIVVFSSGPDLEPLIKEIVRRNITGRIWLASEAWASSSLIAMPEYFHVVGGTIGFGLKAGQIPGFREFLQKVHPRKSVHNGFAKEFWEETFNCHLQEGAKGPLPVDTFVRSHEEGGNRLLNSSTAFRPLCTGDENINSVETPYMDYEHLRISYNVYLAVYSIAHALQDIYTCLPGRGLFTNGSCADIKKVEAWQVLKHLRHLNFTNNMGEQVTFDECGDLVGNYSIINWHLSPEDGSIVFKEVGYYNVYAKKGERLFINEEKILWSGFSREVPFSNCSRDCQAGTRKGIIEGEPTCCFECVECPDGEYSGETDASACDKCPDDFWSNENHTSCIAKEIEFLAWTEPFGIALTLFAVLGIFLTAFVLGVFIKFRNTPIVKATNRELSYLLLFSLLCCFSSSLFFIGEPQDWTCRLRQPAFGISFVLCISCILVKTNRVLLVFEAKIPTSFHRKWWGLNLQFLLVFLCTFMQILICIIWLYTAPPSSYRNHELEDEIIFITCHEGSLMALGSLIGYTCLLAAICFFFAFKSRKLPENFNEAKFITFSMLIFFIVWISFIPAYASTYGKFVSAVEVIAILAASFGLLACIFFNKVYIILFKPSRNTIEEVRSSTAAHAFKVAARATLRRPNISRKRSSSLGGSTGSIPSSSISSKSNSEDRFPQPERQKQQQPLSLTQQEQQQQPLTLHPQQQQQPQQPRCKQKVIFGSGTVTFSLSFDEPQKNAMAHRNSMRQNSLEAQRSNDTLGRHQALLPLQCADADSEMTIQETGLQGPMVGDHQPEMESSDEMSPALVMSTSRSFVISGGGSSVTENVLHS
T1 sequence (P48442 20-1079) 2: T1 sequence (P48442 20-1079) 1
Description: (§1) Human embryonic kidney (HEK) 293T cells were cultured in DMEM supplemented with 10% dFBS and 1% P/S at 37 °C and 5% CO2. 48 h prior to assay, transient transfection was performed using Lipofectamine 2000 as the transfection reagent. White opaque 96-well culture plates (PerkinElmer, Waltham, MA, USA) were used for the ELISA and the TR-FRET dimerization assay, while clear tissue culture treated 96-well plates (Corning, Corning, NY, USA) were used for the IP-One assay. Both plate types were coated with poly-D-lysine before addition of cells and transfection mix. 0.25 μl/well of Lipofectamine 2000 were diluted in 25 μl/well of Opti-MEM and incubated at room temperature (RT) for 5 min. 0.03 μg/well of DNA was diluted in 25 μl/well of Opti-MEM, and subsequently mixed with the Lipofectamine 2000 dilution and incubated 20 min at RT before addition to the plates. Cell suspensions of 170.000 HEK293T cells/mL were prepared in complete growth medium and 100 μl/well (17.000 cells/well) was added to the plates, which were incubated for 48 h at 37 °C and 5% CO2 before performing assays.
Functional activity was measured using the IP-One assay, which is an IP1 accumulation assay. For agonist testing, ligands were prepared in final concentrations in ligand buffer (HBSS, 20 mM HEPES, pH 7.4 supplemented with 20 mM LiCl). Cells were washed once with 100 μl/well of assay buffer (HBSS, 20 mM HEPES, pH 7.4) and 50 μl/well of agonist solution was added after which plates were incubated at 37 °C for 30 min. Subsequently, ligand solutions were removed and cells were washed with 100 μl/well of assay buffer. Cell lysis was performed by addition of 30 μl/well of IP-One Conjugate & Lysis Buffer (Cisbio Bioassays, Codolet, France) and plates were incubated at RT for 30 min. Afterwards, 30 μl/well of assay buffer was added to dilute the cell lysate. 10 μl/well of cell lysate was transferred from the 96-well plate to a 384-well Optiplate and 10 μl/well of detection solution (Assay buffer + 2.5% of anti-IP1 antibody cryptate Terbium conjugate + 2.5% IP1-d2 conjugate (Cisbio Bioassays, Codolet, France)) was also added. The 384-well plate was incubated for 1 h at RT in dark before being measured on an EnVision plate reader (PerkinElmer, Waltham, MA, USA). Upon excitation at 340 nm, emission at 615 nm and 665 nm was measured, and the FRET ratio (665 nm/615 nm) was converted to IP1 concentrations by interpolating values from an IP1 standard curve generated from a provided IP1 calibrator (Cisbio Bioassays, Codolet, France). When testing allosteric modulators, cells were pre-incubated for 30 min at 37 °C with 50 μl/well of ligand buffer supplemented with allosteric modulator and a final concentration of 1% DMSO. […]

HA-CaSR WT = target: T2, HA-CaSR WT (Rattus norvegicus, UniProt P48442); test: IP-One assay (IP1 accumulation, Gq signaling), HEK293T transiently transfected; format: cell-based
T2 construct: mGluR5 signal peptide (N); expressed in transfected cells; host or cells: HEK293T
T2 sequence (P48442 20-1079): T1 sequence (P48442 20-1079) 1
Description: as §1
Functional activity was measured using the IP-One assay, which is an IP1 accumulation assay. For agonist testing, ligands were prepared in final concentrations in ligand buffer (HBSS, 20 mM HEPES, pH 7.4 supplemented with 20 mM LiCl). Cells were washed once with 100 μl/well of assay buffer (HBSS, 20 mM HEPES, pH 7.4) and 50 μl/well of agonist solution was added after which plates were incubated at 37 °C for 30 min. Subsequently, ligand solutions were removed and cells were washed with 100 μl/well of assay buffer. Cell lysis was performed by addition of 30 μl/well of IP-One Conjugate & Lysis Buffer (Cisbio Bioassays, Codolet, France) and plates were incubated at RT for 30 min. Afterwards, 30 μl/well of assay buffer was added to dilute the cell lysate. 10 μl/well of cell lysate was transferred from the 96-well plate to a 384-well Optiplate and 10 μl/well of detection solution (Assay buffer + 2.5% of anti-IP1 antibody cryptate Terbium conjugate + 2.5% IP1-d2 conjugate (Cisbio Bioassays, Codolet, France)) was also added. The 384-well plate was incubated for 1 h at RT in dark before being measured on an EnVision plate reader (PerkinElmer, Waltham, MA, USA). Upon excitation at 340 nm, emission at 615 nm and 665 nm was measured, and the FRET ratio (665 nm/615 nm) was converted to IP1 concentrations by interpolating values from an IP1 standard curve generated from a provided IP1 calibrator (Cisbio Bioassays, Codolet, France). When testing allosteric modulators, cells were pre-incubated for 30 min at 37 °C with 50 μl/well of ligand buffer supplemented with allosteric modulator and a final concentration of 1% DMSO. Afterwards, the buffer solution was removed and 50 μl/well of agonist solution in ligand buffer supplemented with allosteric modulator and a final concentration of 1% DMSO was added. Plates were incubated for 30 min at 37 °C followed by one wash in 100 μl/well of assay buffer. Cell lysis and detection was performed as described above.

[Ca+2] [Ca^2+]
EC50 (HA-CaSR WT + myc CaSR-WT; Ca^2+ alone): 2.98 mM | Hill coefficient ± S.E.M. (HA-CaSR WT + myc CaSR-WT; Ca^2+ alone): 4.24 ± 0.19 | pEC50 ± S.E.M. (HA-CaSR WT + myc CaSR-WT; Ca^2+ alone): 2.53 ± 0.02 | Max ± S.E.M. (HA-CaSR WT + myc CaSR-WT; normalized to maximum response of WT CaSR): 100% | EC50 (HA-CaSR WT; Ca^2+ alone, Table 1): 3.77 mM | Hill coefficient ± S.E.M. (HA-CaSR WT; Ca^2+ alone, Table 1): 3.62 ± 0.48 | pEC50 ± S.E.M. (HA-CaSR WT; Ca^2+ alone, Table 1): 2.42 ± 0.01 | EC50 (HA-CaSR WT; Ca^2+ alone, Table 3): 3.21 mM | pEC50 ± S.E.M. (HA-CaSR WT; Ca^2+ alone, Table 3): 2.49 ± 0.01 | Max ± S.E.M. (HA-CaSR WT; Ca^2+ alone, normalized to maximum response of WT CaSR, Table 3): ≈100% | EC50 (HA-CaSR WT; Ca^2+ with 1 μM NPS R-568): 1.28 mM | pEC50 ± S.E.M. (HA-CaSR WT; Ca^2+ with 1 μM NPS R-568): 2.89 ± 0.01 | Max ± S.E.M. (HA-CaSR WT; Ca^2+ with 1 μM NPS R-568, normalized to maximum response with Ca^2+ alone for the construct): 110 ± 11% | EC50 (HA-CaSR WT; Ca^2+ with 5 μM NPS 2143): 8.4 mM | pEC50 ± S.E.M. (HA-CaSR WT; Ca^2+ with 5 μM NPS 2143): 2.08 ± 0.01 | Max ± S.E.M. (HA-CaSR WT; Ca^2+ with 5 μM NPS 2143, normalized to maximum response with Ca^2+ alone for the construct): 72 ± 5.6% | Max ± S.E.M. (HA-CaSR WT; normalized to maximum response of WT CaSR, Table 1): 100%
